# Data taken from US8318186B2, “Use of at least a fatty ester for preparing a composition designed to inhibit 5-α-reductase activity, in pharmacology, in particular dermatology, in cosmetics and as food additive” (Laboratoires Expanscience, priority 2000, dated 2012).
# Where “and” joins values, the source holds several entries; their conditions need not be identical. Equal values may be shown once. Marks after values point to notes of the source that are not given here.
# System: 5α-reductase
# Experiment: 5α-reductase activity, conversion of testosterone to 5α-dihydrotestosterone in normal human dermal fibroblast cultures (Example 3)
# Type: cell-based
# Settings: for 5α-reductase activity as percentage of the DMSO group / 5α-DHT formed per culture well, mean / 5α-DHT formed per culture well, single well: 22 hours of incubation; for 5α-DHT formed per culture well, mean / 5α-DHT formed per culture well, single well: DMSO 1% (v/v); for 5α-DHT formed per culture well, mean: mean of triplicate; for 5α-DHT formed per culture well, single well: single replicate; for inhibition of the 5α-reductase activity: text of Example 3
# Description: It is proposed to evaluate the effect of the products such as methyl oleate (Sigma commercial product, 99% purity), of the methyl esters of avocado and of a Serenoa Repens extract chosen as reference on the 5α-reductase activity. An in vitro model of normal human dermal fibroblast cultures was selected.
# The fibroblast culture medium (FCM) consisted of MEM/M199 (3:1, v/v) supplemented with penicillin (50 IU/ml), streptomycin (50 μg/ml), sodium bicarbonate (0.2%, w/v) and FCS (10%, v/v).
# The assay system consisted of normal human dermal fibroblasts cultured as a monolayer. The fibroblasts were isolated from a residue from abdominal plastic surgery performed on a person (subject BIOPREDIC No. I0013). The cells were used at the fifth passage; they were cultured until the monolayers were confluent in FCM medium at 37° C. in a humid atmosphere containing 5% CO2.
# The fibroblast incubation medium (FIM) consisted of FCM supplemented with tritiated testosterone (1.6×10^−7 M, that is 6.32 μCi/ml) and nonradiolabeled testosterone (3.84×10^−6 M)
# The test products and finasteride were taken up in DMSO before being diluted in the incubation medium. The final concentration of DMSO was kept constant and equal to 1% (v/v) in each dilution of test products and reference products.
# The fibroblast cultures were preincubated in the presence of the test products or of the reference product for 2 hours before adding the substrate, testosterone. For this step, the test products and the reference product were prepared in the FCM medium.
# After preincubation, the fibroblast cultures were incubated in the presence of the test products or of the reference product prepared in the FIM medium for 22 hours at 37° C. in a humid atmosphere containing 5% CO2. Control cultures were incubated in the FIM medium in the absence of test products and of reference product. “DMSO control” cultures were incubated in the FIM medium containing 1% (v/v) of DMSO.
# Each experimental condition was tested in triplicate.
# After the incubation period, the cells were subjected to the action of ultrasound in the FIM medium. The cellular lysates thus obtained were extracted with dichloromethane. After evaporation, the dry residues were taken up in methanol and were deposited on 60F254 silica plates (MERCK, reference 5554).
# Nonradiolabeled standards, testosterone, 5α-dihydro-testosterone and androstenedione, were deposited on each of the plates.
# The migration solvent was a mixture of dichloromethane and ether (7:3, v/v) At the end of the migration, the silica plates were read using a BERTHOLD radioactivity scanner.
# The nonradiolabeled standards were visualized by spraying 5% sulfuric acid (v/v) over the chromatography plates which were then heated at 100° C. for 10 minutes.
# Comparison of the Rf values (relative retardation factor) determined for the standards with those obtained for the various radioactive metabolites allowed the identification of the latter.
# The metabolizing of testosterone to 5α-dihydro-testosterone under the various experimental conditions was calculated: the results (areas of the 5α-dihydrotestosterone peaks counted by the BERTHOLD scanner) were expressed in pmol of 5α-dihydro-testosterone formed per culture well. They were also expressed as a percentage of the 5α-reductase activity present in the “DMSO control” group.
# The groups of data (control group and treated groups) were treated by a one-way analysis of variance (ANOVA 1, p<0.05), followed by a DUNNETT's test (p<0.05). The effect of the test products and of the reference product was compared with the “DMSO control” group. The effects of the test products were compared to each other by a two-way analysis of variance (ANOVA 2, p<0.05, factor 1=concentration and factor 2=treatment).
compound,measurement,setting,value
"CCCCCCCC/C=C\CCCCCCCC(=O)OC [Methyl oleate, methyl oleate]",5α-reductase activity as percentage of the DMSO group,1 μg/ml,76 percentage of the DMSO group
same,"5α-DHT formed per culture well, mean",1 μg/ml,6.48* +/− pmol of 5α-DHT formed/culture well
same,"5α-DHT formed per culture well, single well",1 μg/ml,7.12 pmol of 5α-DHT formed/culture well and 6.24 pmol of 5α-DHT formed/culture well and 6.08 pmol of 5α-DHT formed/culture well
same,inhibition of the 5α-reductase activity,1 μg/ml,24%
same,5α-reductase activity as percentage of the DMSO group,10 μg/ml,62 percentage of the DMSO group
same,"5α-DHT formed per culture well, mean",10 μg/ml,5.32* +/− pmol of 5α-DHT formed/culture well
same,"5α-DHT formed per culture well, single well",10 μg/ml,3.00 pmol of 5α-DHT formed/culture well and 7.04 pmol of 5α-DHT formed/culture well and 5.92 pmol of 5α-DHT formed/culture well
same,inhibition of the 5α-reductase activity,10 μg/ml,38%
same,5α-reductase activity as percentage of the DMSO group,100 μg/ml,59 percentage of the DMSO group
same,"5α-DHT formed per culture well, mean",100 μg/ml,5.05* +/− pmol of 5α-DHT formed/culture well
same,"5α-DHT formed per culture well, single well",100 μg/ml,5.44 pmol of 5α-DHT formed/culture well and 5.12 pmol of 5α-DHT formed/culture well and 4.60 pmol of 5α-DHT formed/culture well
same,inhibition of the 5α-reductase activity,100 μg/ml,41%
same,"5α-reductase inhibitory activity, in words","tested at 10 and 100 μg/ml, compared with Serenoa repens extract",significantly higher than that of the Serenoa repens extract
